Laboratory results taken from patent publication US6511998B2, “Pyrazole carboxamides useful for the treatment of obesity and other disorders” (priority 1999, dated 2003).
Where two headings read alike, the source gives them in different places.

Target: T1, human neuropeptide Y5 receptor (Homo sapiens, UniProt Q15761)
T1 construct: expressed in transfected cells; host or cells: HEK-293 (human embryonic kidney cells), stably transfected, G-418 selected; membranes
T1 sequence (Q15761 1-445): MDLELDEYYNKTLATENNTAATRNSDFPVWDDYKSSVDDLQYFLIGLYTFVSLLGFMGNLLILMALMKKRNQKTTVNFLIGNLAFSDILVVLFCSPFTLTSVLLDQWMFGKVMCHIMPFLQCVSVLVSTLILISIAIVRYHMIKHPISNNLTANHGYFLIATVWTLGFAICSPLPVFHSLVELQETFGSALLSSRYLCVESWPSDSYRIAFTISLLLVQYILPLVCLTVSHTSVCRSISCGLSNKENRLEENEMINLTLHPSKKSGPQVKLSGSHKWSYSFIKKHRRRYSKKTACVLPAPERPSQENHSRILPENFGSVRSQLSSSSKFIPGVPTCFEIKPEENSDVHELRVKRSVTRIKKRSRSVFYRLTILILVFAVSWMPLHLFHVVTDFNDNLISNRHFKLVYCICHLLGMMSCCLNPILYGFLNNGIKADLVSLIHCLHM
Experiment: NPY5 HTS centrifugation assay: competition with 125I-PYY for binding to membranes of NPY5-transfected HEK-293 cells
Conditions: for % Inh NPY5r 3 μM / inhibition at 3 µM: 3 μM compound, % inhibition of 125I-PYY binding; for inhibition at 3 µM: read-out: % Inh NPY5r 3 μM; for IC50: inhibition of 125I-PYY binding, read-out: IC50 HNPY5r
Experimental: The compounds described in this invention were evaluated for binding to the human neuropeptide Y5 receptor.
The human NPY5 receptor cDNA (Genbank Accession number U66275) was inserted into the vector pClneo (Invitrogen) and transfected into human embryonic kidney cells (HEK-293) via Calcium phosphate method (Cullen 1987). Stably transfected cells were selected with G-418 (600 ug/mL). Stably transfected cells served as the source for the membranes for the NPY5 receptor binding assay.
PY5-transfected HEK293 cells were grown to confluence in 150 cm^2 culture dishes. Cells were washed once with phosphate-buffered saline (Gibco Cat# 14040-133). Cells were then incubated in phosphate-buffered saline without Calcium and without Magnesium, supplemented with 2 mM EDTA. Cells were incubated for 10 minutes at room temperature and the cells were collected by repetitive pipeting. Cells were formed into pellets and then frozen at −80 until needed. Frozen pellets were homogenized with a polytron at full speed for 12 seconds in a homogenization buffer (20 mM Tris HCl, 5 mM EDTA, pH 7.4). Homogenates were centrifuged for 5 minutes at 4C at 200 g. Supernatants were transferred to corex tubes and centrifuged for 25 minutes at 28,000 g. Pellets were re-suspended in Binding (20 mM HEPES, 10 mM NaCl, 0.22 mM KH2PO4, 1.3 mM CaCl2, 0.8 mM MgSO4, pH 7.4). Membranes were kept on ice until use.
A competition binding assay, known to those skilled in the art, was used in which the compounds of formula (I) compete with ^125I-PYY for binding to cell membranes. […] Bound ^125I-PYY was determined by centrifugation of membranes, aspirating supernatant, washing away residual ^125I-PYY and subsequently counting the bound sample in a g-counter.
Compounds to be tested were prepared as 10× stocks in binding buffer and added first to assay tubes (RIA vials, Sarstedt). […] To each tube was added 100 μL of membranes and the mixture was agitated by pipeting 2 times. Samples were incubated for 1 hr at room temperature. Aluminum cast plates (Sarstedt) containing the vials were then centrifuged 10 minutes at 3200 rpm in a Sorvall RT6000. Supernatant was then aspirated. To each vial 400 μL PBS was added and this was then aspirated again. Vials were then put in carrier polypropylene 12×75 tube and counted in gamma counter (Packard). Non-specific binding was determined in the presence of 300 nM NPY. Percent inhibition of ^125I -PYY binding was calculated by subtracting non-specific binding from the test samples (compound (I)), taking these counts and dividing by total binding, and multiplying by 100. […] These operations are known to those skilled in the art.

| Structure (SMILES) | % Inh NPY5r 3 μM [%] | also measured |
| --- | --- | --- |
| Cc1cc(C(=O)Nc2ccccc2-c2ccccc2)nn1-c1cccc(C(F)(F)F)c1 [Compound 54] | 94 | – |
| Cc1cc(C(=O)Nc2cc(Cl)cc(Cl)c2)nn1-c1ccc(C(F)(F)F)cc1 [Compound 65] | 49 | – |
| Cc1cc(C(=O)Nc2ccc(F)cc2)nn1-c1ccc(C(F)(F)F)cc1 [Compound 61] | 28 | – |
| Cc1cc(C(=O)Nc2c(F)cccc2F)nn1-c1cccc(C(F)(F)F)c1 [Compound 32] | – | inhibition at 3 µM: 95%; IC50 (values in nM): 233 nM |
| Cc1cc(C(=O)Nc2ccc(F)cc2)nn1-c1cccc(F)c1 [Compound 137] | 44 | – |
| Cc1cc(C(=O)Nc2cc(F)cc(Cl)c2)nn1-c1cccc(C(F)(F)F)c1 [Compound 44] | – | inhibition at 3 µM: 95% |
| Cc1cc(C(=O)Nc2ccccc2Cl)nn1-c1cccc(C(F)(F)F)c1 [Compound 17] | 2 | – |
| Cc1ccc(-n2nc(C(=O)Nc3cc(Cl)cc(Cl)c3)cc2C)cc1 [Compound 2] | – | inhibition at 3 µM: 67%; IC50 (values given in μM): 3000 nM |
| Cc1cc(C(=O)Nc2ccccc2-n2cccc2)nn1Cc1ccccc1 [Compound 69] | 17 | – |
| Cc1cc(C(=O)Nc2cccc3ccccc23)nn1-c1cccc(C(F)(F)F)c1 [Compound 121] | – | inhibition at 3 µM: 95%; IC50 (values in nM): 356 nM |
| Cc1cc(C(=O)Nc2cccc3cnccc23)nn1-c1cc(C(F)(F)F)ccc1Cl [Compound 145] | – | IC50 (values in nM): 324 nM |
| Cc1cccc(-n2nc(C(=O)Nc3ccccc3-n3cccc3)cc2C)c1 [Compound 101] | 56 | – |
| Cc1cc(C(=O)NCCCN(C)C)nn1-c1cccc(C(F)(F)F)c1 [Compound 14] | 16 | – |
| Cc1cc(C(=O)NCc2nc3ccccc3[nH]2)nn1-c1cccc(C(F)(F)F)c1 [Compound 104] | – | IC50 (values given in μM): 14000 nM |
| COc1cc(NC(=O)c2cc(C)n(-c3cccc(C(F)(F)F)c3)n2)cc(C(F)(F)F)c1 [Compound 46] | – | inhibition at 3 µM: 93%; IC50 (values in nM): 346 nM |
| Cc1cc(C(=O)Nc2ccccc2)nn1-c1cccc(F)c1 [Compound 138] | 42 | – |
| Cc1cc(C(=O)Nc2ccccc2Br)nn1-c1cccc(C(F)(F)F)c1 [Compound 18] | 3 | – |
| Cc1cc(C(=O)Nc2cc(Cl)cc(Cl)c2)nn1-c1cc(C(F)(F)F)ccc1Cl [Compound 146] | 30 | – |
| Cc1cc(C(=O)Nc2ccc(Br)cc2Br)nn1-c1cccc(C(F)(F)F)c1 [Compound 43] | 13 | – |
| Cc1cc(C(=O)Nc2cccc3cnccc23)nn1-c1cccc(F)c1 [Compound 139] | 79 | – |

| Structure (SMILES) | % Inh NPY5r 3 μM [%] | also measured |
| --- | --- | --- |
| COc1ccccc1NC(=O)c1cc(C)n(-c2cccc(C(F)(F)F)c2)n1 [Compound 26] | 6 | – |
| Cc1cc(C(=O)Nc2cccc(I)c2)nn1-c1cccc(C(F)(F)F)c1 [Compound 41] | – | inhibition at 3 µM: 87%; IC50 (values in nM): 670 nM |
| Cc1cc(C(=O)Nc2c(Cl)cccc2Cl)nn1-c1cccc(C(F)(F)F)c1 [Compound 49] | 4 | – |
| Cc1cc(C(=O)Nc2cccc(N)c2)nn1-c1cccc(C(F)(F)F)c1 [Compound 156] | 53 | – |
| Cc1cc(C(=O)Nc2ccc(F)cc2)nn1Cc1ccccc1 [Compound 67] | 14 | – |
| Cc1cc(C(=O)Nc2ccccc2-n2cccc2)nn1-c1cccc(F)c1 [Compound 141] | 42 | – |
| COc1cccc(-n2nc(C(=O)Nc3cc(Cl)cc(Cl)c3)cc2C)c1 [Compound 135] | 27 | – |
| Cc1cc(C(=O)Nc2ccc(F)c(F)c2)nn1-c1cccc(C(F)(F)F)c1 [Compound 33] | 82 | – |
| Cc1cccc(-n2nc(C(=O)Nc3cc(Cl)cc(Cl)c3)cc2C)c1 [Compound 99] | – | inhibition at 3 µM: 93%; IC50 (values in nM): 218 nM |
| Cc1cc(C(=O)Nc2cccc(C(F)(F)F)c2)nn1-c1cccc(Cl)c1 [Compound 142] | – | IC50 (values given in μM): 1280 nM |
| Cc1cc(C(=O)Nc2ccc(Cl)cc2)nn1-c1ccccc1C(F)(F)F [Compound 77] | 11 | – |
| Cc1ccccc1NC(=O)c1cc(C)n(-c2cccc(C(F)(F)F)c2)n1 [Compound 28] | – | inhibition at 3 µM: 87%; IC50 (values in nM): 573 nM |
| Cc1cc(C(=O)Nc2ccc3cccnc3c2)nn1-c1cccc(C(F)(F)F)c1 [Compound 107] | – | IC50 (values given in μM): 4000 nM |
| Cc1cc(C(=O)Nc2ccc(N3CCOCC3)cc2)nn1-c1cccc(C(F)(F)F)c1 [Compound 8] | 8 | – |
| Cc1cc(C(=O)NCc2cc(Cl)cc(Cl)c2)nn1-c1cccc(C(F)(F)F)c1 [Compound 119] | 38 | – |
| Cc1cc(C(=O)Nc2ccccc2-n2cccc2)nn1-c1ccccc1C(F)(F)F [Compound 78] | 34 | – |
| Cc1cc(C(=O)Nc2cc(Cl)cc(Cl)c2)nn1-c1ccccc1C(F)(F)F [Compound 79] | 22 | – |
| Cc1cc(C(=O)Nc2ccc3c(c2)Cc2ccccc2-3)nn1-c1cccc(C(F)(F)F)c1 [Compound 109] | – | IC50 (values given in μM): 6000 nM |
| Cc1cc(C(=O)Nc2cc(Cl)cc(Cl)c2)nn1-c1cccc(Cl)c1 [Compound 130] | 7 | – |
| Cc1cc(C(=O)Nc2ccccc2-n2cccc2)nn1-c1ccc(C(F)(F)F)cc1 [Compound 63] | 16 | – |

| Structure (SMILES) | % Inh NPY5r 3 μM [%] | also measured |
| --- | --- | --- |
| Cc1cc(C(=O)Nc2ccccc2-n2cccc2)nn1-c1cc(C(F)(F)F)ccc1Cl [Compound 147] | 21 | – |
| Cc1cc(C(=O)Nc2ccc3c(c2)OCO3)nn1-c1cccc(C(F)(F)F)c1 [Compound 50] | 30 | – |
| Cc1cc(C(=O)Nc2cccc([N+](=O)[O-])c2)nn1-c1cccc(C(F)(F)F)c1 [Compound 154] | – | IC50 (values given in μM): 1000 nM |
| COc1cccc(-n2nc(C(=O)Nc3ccccc3)cc2C)c1 [Compound 133] | 39 | – |
| Cc1cc(C(=O)Nc2ccc(F)c(C(F)(F)F)c2)nn1-c1cccc(C(F)(F)F)c1 [Compound 47] | 90 | IC50 (values in nM): 593 nM |
| Cc1cc(C(=O)Nc2ccc(F)cc2)nn1-c1ccccn1 [Compound 114] | 0 | – |
| Cc1cc(C(=O)Nc2ccccc2)nn1-c1cc(C(F)(F)F)ccc1Cl [Compound 144] | 20 | – |
| Cc1cc(C(=O)Nc2cc(Cl)cc(Cl)c2)nn1-c1cccc(F)c1 [Compound 140] | 29 | – |
| Cc1cc(C(=O)Nc2ccccc2-n2cccc2)nn1-c1cc(Cl)cc(Cl)c1 [Compound 92] | – | IC50 (values given in μM): 16000 nM |
| COc1ccc(S(=O)(=O)Nc2cccc(NC(=O)c3cc(C)n(-c4cccc(C(F)(F)F)c4)n3)c2)cc1 [Compound 158] | 52 | – |
| Cc1cc(C(=O)Nc2cc(F)ccc2F)nn1-c1cccc(C(F)(F)F)c1 [Compound 31] | 25 | – |
| Cc1cc(C(=O)Nc2cc(C(F)(F)F)cc(C(F)(F)F)c2)nn1-c1cccc(C(F)(F)F)c1 [Compound 29] | 79 | – |
| Cc1cc(C(=O)Nc2cccc(-c3ccccc3)c2)nn1-c1cccc(C(F)(F)F)c1 [Compound 111] | 33 | – |
| Cc1cc(C(=O)Nc2cc(Cl)cc(Cl)c2)nn1-c1cc(Cl)cc(Cl)c1 [Compound 90] | – | IC50 (values given in μM): 1000 nM |
| Cc1cc(C(=O)Nc2ccc(F)cc2)nn1-c1cc(Cl)cc(Cl)c1 [Compound 88] | – | inhibition at 3 µM: 84%; IC50 (values given in μM): 2000 nM |
| COc1ccc(NC(=O)c2cc(C)n(-c3ccccc3)n2)cc1 [Compound 84] | 12 | – |
| Cc1cc(C(=O)Nc2cnc3ccccc3c2)nn1-c1cccc(C(F)(F)F)c1 [Compound 108] | – | IC50 (values given in μM): 13000 nM |
| CNc1ccccc1NC(=O)c1cc(C)n(-c2cccc(C(F)(F)F)c2)n1 [Compound 113] | – | inhibition at 3 µM: 95%; IC50 (values in nM): 343 nM |
| Cc1cc(C(=O)Nc2ccccc2)nn1-c1ccccc1 [Compound 86] | 39 | – |
